According to patent US9738634B2, “Heterocyclic amide compound and herbicide” (SYNGENTA PARTICIPATIONS AG, priority 2013, dated 2017):

Experiments:
Format in all cases: in vivo
Details in all cases: treatment dosage 320 g/ha
barnyard grass [1] = assay: Test Example 1: weedkilling efficacy, preemergent weed treatment in the submerged state; A: barnyard grass
In short: (§1)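 Submerged pre-emergence treatment, water-surface application of compound emulsion at g/ha dosages; 4 cm flooded alluvial soil, weeds sown and 2.5-leaf rice transplanted same day. Rated after 3 weeks, greenhouse.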

bulrush [2] = assay: Test Example 1: weedkilling efficacy, preemergent weed treatment in the submerged state; B: bulrush
In short: as §1

oval-leafed pondweed [3] = assay: Test Example 1: weedkilling efficacy, preemergent weed treatment in the submerged state; C: oval-leafed pondweed
In short: as §1

transplanted rice = assay: Test Example 1: preemergent weed treatment in the submerged state, effect on crop; a: transplanted rice
In short: as §1

barnyard grass [4] = assay: Test Example 2: weedkilling efficacy, growth period weed treatment in the submerged state; A: barnyard grass
In short: (§2)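 Seedlings at 1-2 leaves in 4 cm-deep submerged alluvial soil received emulsion formulations on the water surface, dosed per hectare; effects were judged 3 weeks on.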

bulrush [5] = assay: Test Example 2: weedkilling efficacy, growth period weed treatment in the submerged state; B: bulrush
In short: as §2

oval-leafed pondweed [6] = assay: Test Example 2: weedkilling efficacy, growth period weed treatment in the submerged state; C: oval-leafed pondweed
In short: as §2

crabgrass [7] = assay: Test Example 3: weedkilling efficacy through soil treatment; D: crabgrass
In short: (§3)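 Crop and weed responses were judged three weeks after a uniform surface spray of the water-diluted emulsion at the given g/ha rate. Seeds sat beneath about 1.5 cm of sterilized diluvial soil, and boxes stood in a greenhouse at 25 to 30° C.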

green foxtail [8] = assay: Test Example 3: weedkilling efficacy through soil treatment; E: green foxtail
In short: as §3

barnyard grass [9] = assay: Test Example 3: weedkilling efficacy through soil treatment; F: barnyard grass
In short: as §3

wild oat [10] = assay: Test Example 3: weedkilling efficacy through soil treatment; G: wild oat
In short: as §3

black-grass [11] = assay: Test Example 3: weedkilling efficacy through soil treatment; H: black-grass
In short: as §3

Italian ryegrass [12] = assay: Test Example 3: weedkilling efficacy through soil treatment; I: Italian ryegrass
In short: as §3

common wind-grass [13] = assay: Test Example 3: weedkilling efficacy through soil treatment; J: common wind-grass
In short: as §3

Indian mallow [14] = assay: Test Example 3: weedkilling efficacy through soil treatment; K: Indian mallow
In short: as §3

redroot pigweed [15] = assay: Test Example 3: weedkilling efficacy through soil treatment; L: redroot pigweed
In short: as §3

fig-leafed goosefoot = assay: Test Example 3: weedkilling efficacy through soil treatment; M: fig-leafed goosefoot
In short: as §3

chickweed [16] = assay: Test Example 3: weedkilling efficacy through soil treatment; N: chickweed
In short: as §3

catchweed [17] = assay: Test Example 3: weedkilling efficacy through soil treatment; O: catchweed
In short: as §3

birds-eye speedwell [18] = assay: Test Example 3: weedkilling efficacy through soil treatment; p: birds-eye speedwell
In short: as §3

directly sown rice [19] = assay: Test Example 3: soil treatment, effect on crop; b: directly sown rice
In short: as §3

corn [20] = assay: Test Example 3: soil treatment, effect on crop; c: corn
In short: as §3

soybean [21] = assay: Test Example 3: soil treatment, effect on crop; d: soybean
In short: as §3

wheat [22] = assay: Test Example 3: soil treatment, effect on crop; e: wheat
In short: as §3

beet [23] = assay: Test Example 3: soil treatment, effect on crop; f: beet
In short: as §3

rapeseed [24] = assay: Test Example 3: soil treatment, effect on crop; g: rapeseed
In short: as §3

crabgrass [25] = assay: Test Example 4: weedkilling efficacy by foliar treatment; D: crabgrass
In short: (§4)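 Seeds are spot-sown into sterilized diluvial soil and covered with about 1.5 cm of soil. After 14 days' greenhouse growth at 25 to 30° C, plants are sprayed on stems and leaves with diluted emulsion at the stated g/ha rate, then scored at 3 weeks.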

green foxtail [26] = assay: Test Example 4: weedkilling efficacy by foliar treatment; E: green foxtail
In short: as §4

barnyard grass [27] = assay: Test Example 4: weedkilling efficacy by foliar treatment; F: barnyard grass
In short: as §4

wild oat [28] = assay: Test Example 4: weedkilling efficacy by foliar treatment; G: wild oat
In short: as §4

black-grass [29] = assay: Test Example 4: weedkilling efficacy by foliar treatment; H: black-grass
In short: as §4

Italian ryegrass [30] = assay: Test Example 4: weedkilling efficacy by foliar treatment; I: Italian ryegrass
In short: as §4

common wind-grass [31] = assay: Test Example 4: weedkilling efficacy by foliar treatment; J: common wind-grass
In short: as §4

Indian mallow [32] = assay: Test Example 4: weedkilling efficacy by foliar treatment; K: Indian mallow
In short: as §4

redroot pigweed [33] = assay: Test Example 4: weedkilling efficacy by foliar treatment; L: redroot pigweed
In short: as §4

chickweed [34] = assay: Test Example 4: weedkilling efficacy by foliar treatment; N: chickweed
In short: as §4

catchweed [35] = assay: Test Example 4: weedkilling efficacy by foliar treatment; O: catchweed
In short: as §4

birds-eye speedwell [36] = assay: Test Example 4: weedkilling efficacy by foliar treatment; p: birds-eye speedwell
In short: as §4

directly sown rice [37] = assay: Test Example 4: foliar treatment, effect on crop; b: directly sown rice
In short: as §4

corn [38] = assay: Test Example 4: foliar treatment, effect on crop; c: corn
In short: as §4

soybean [39] = assay: Test Example 4: foliar treatment, effect on crop; d: soybean
In short: as §4

wheat [40] = assay: Test Example 4: foliar treatment, effect on crop; e: wheat
In short: as §4

beet [41] = assay: Test Example 4: foliar treatment, effect on crop; f: beet
In short: as §4

rapeseed [42] = assay: Test Example 4: foliar treatment, effect on crop; g: rapeseed
In short: as §4

SMILES: CC1=C(c2ccccc2)C(=O)N(C(C)(C)C(=O)Nc2cccc(CF)n2)CO1 [B-2-56]
- A (barnyard grass) weedkilling efficacy grade (barnyard grass [1]): 5 (weed kill ratio 90% or more, (practically complete withering))
- B (bulrush) weedkilling efficacy grade (bulrush [2]): 5 (weed kill ratio 90% or more, (practically complete withering))
- C (oval-leafed pondweed) weedkilling efficacy grade (oval-leafed pondweed [3]): 5 (weed kill ratio 90% or more, (practically complete withering))
- a (transplanted rice) effect on crop grade (transplanted rice): 1 (weed kill ratio 5% or more, less than 20%)
- A (barnyard grass) weedkilling efficacy grade (barnyard grass [4]): 5 (weed kill ratio 90% or more, (practically complete withering))
- B (bulrush) weedkilling efficacy grade (bulrush [5]): 5 (weed kill ratio 90% or more, (practically complete withering))
- C (oval-leafed pondweed) weedkilling efficacy grade (oval-leafed pondweed [6]): 5 (weed kill ratio 90% or more, (practically complete withering))
- D (crabgrass) weedkilling efficacy grade (crabgrass [7]): 5 (weed kill ratio 90% or more, (practically complete withering))
- E (green foxtail) weedkilling efficacy grade (green foxtail [8]): 5 (weed kill ratio 90% or more, (practically complete withering))
- F (barnyard grass) weedkilling efficacy grade (barnyard grass [9]): 5 (weed kill ratio 90% or more, (practically complete withering))
- G (wild oat) weedkilling efficacy grade (wild oat [10]): 3 (weed kill ratio 40% or more, less than 70%)
- H (black-grass) weedkilling efficacy grade (black-grass [11]): 5 (weed kill ratio 90% or more, (practically complete withering))
- I (Italian ryegrass) weedkilling efficacy grade (Italian ryegrass [12]): 5 (weed kill ratio 90% or more, (practically complete withering))
- J (common wind-grass) weedkilling efficacy grade (common wind-grass [13]): 5 (weed kill ratio 90% or more, (practically complete withering))
- K (Indian mallow) weedkilling efficacy grade (Indian mallow [14]): 0 (weed kill ratio 5% or less (practically no effect))
- L (redroot pigweed) weedkilling efficacy grade (redroot pigweed [15]): 2 (weed kill ratio 20% or more, less than 40%)
- M (fig-leafed goosefoot) weedkilling efficacy grade (fig-leafed goosefoot): 4 (weed kill ratio 70% or more, less than 90%)
- N (chickweed) weedkilling efficacy grade (chickweed [16]): 4 (weed kill ratio 70% or more, less than 90%)
- O (catchweed) weedkilling efficacy grade (catchweed [17]): 5 (weed kill ratio 90% or more, (practically complete withering))
- P (birds-eye speedwell) weedkilling efficacy grade (birds-eye speedwell [18]): 5 (weed kill ratio 90% or more, (practically complete withering))
- b (directly sown rice) effect on crop grade (directly sown rice [19]): 2 (weed kill ratio 20% or more, less than 40%)
- c (corn) effect on crop grade (corn [20]): 1 (weed kill ratio 5% or more, less than 20%)
- d (soybean) effect on crop grade (soybean [21]): 0 (weed kill ratio 5% or less (practically no effect))
- e (wheat) effect on crop grade (wheat [22]): 1 (weed kill ratio 5% or more, less than 20%)
- f (beet) effect on crop grade (beet [23]): 2 (weed kill ratio 20% or more, less than 40%)
- g (rapeseed) effect on crop grade (rapeseed [24]): 1 (weed kill ratio 5% or more, less than 20%)
- D (crabgrass) weedkilling efficacy grade (crabgrass [25]): 5 (weed kill ratio 90% or more, (practically complete withering))
- E (green foxtail) weedkilling efficacy grade (green foxtail [26]): 5 (weed kill ratio 90% or more, (practically complete withering))
- F (barnyard grass) weedkilling efficacy grade (barnyard grass [27]): 4 (weed kill ratio 70% or more, less than 90%)
- G (wild oat) weedkilling efficacy grade (wild oat [28]): 5 (weed kill ratio 90% or more, (practically complete withering))
- H (black-grass) weedkilling efficacy grade (black-grass [29]): 4 (weed kill ratio 70% or more, less than 90%)
- I (Italian ryegrass) weedkilling efficacy grade (Italian ryegrass [30]): 5 (weed kill ratio 90% or more, (practically complete withering))
- J (common wind-grass) weedkilling efficacy grade (common wind-grass [31]): 5 (weed kill ratio 90% or more, (practically complete withering))
- K (Indian mallow) weedkilling efficacy grade (Indian mallow [32]): 0 (weed kill ratio 5% or less (practically no effect))
- L (redroot pigweed) weedkilling efficacy grade (redroot pigweed [33]): 3 (weed kill ratio 40% or more, less than 70%)
- N (chickweed) weedkilling efficacy grade (chickweed [34]): 4 (weed kill ratio 70% or more, less than 90%)
- O (catchweed) weedkilling efficacy grade (catchweed [35]): 4 (weed kill ratio 70% or more, less than 90%)
- P (birds-eye speedwell) weedkilling efficacy grade (birds-eye speedwell [36]): 4 (weed kill ratio 70% or more, less than 90%)
- b (directly sown rice) effect on crop grade (directly sown rice [37]): 4 (weed kill ratio 70% or more, less than 90%)
- c (corn) effect on crop grade (corn [38]): 5 (weed kill ratio 90% or more, (practically complete withering))
- d (soybean) effect on crop grade (soybean [39]): 4 (weed kill ratio 70% or more, less than 90%)
- e (wheat) effect on crop grade (wheat [40]): 3 (weed kill ratio 40% or more, less than 70%)
- f (beet) effect on crop grade (beet [41]): 3 (weed kill ratio 40% or more, less than 70%)
- g (rapeseed) effect on crop grade (rapeseed [42]): 3 (weed kill ratio 40% or more, less than 70%)
